From patent US11319299B2, “Substituted carboxamides as inhibitors of WDR5 protein-protein binding” (PROPELLON THERAPEUTICS INC., priority 2016, dated 2022)
Where two headings read alike, the source gives them in different places.

Columns and labels:
WDR5 [1] = molecular target: T1, WDR5 (Homo sapiens (Human), UniProt P61964); details: previous studies, J. Med. Chem. 2010, 53: 5179-5185; J. Am. Chem. Soc. 2013, 135: 669-682; read-out: Ki, binding affinity to WDR5; cited from earlier work
[2] = system: H3K4 dimethylation (H3K4me2) in T24 cells; assay: Detection of in-cell H3K4 dimethylation (AlphaLisa); assay type: cell-based; details: Homo sapiens, T-24, 120 h, five days, read-out: In vitro whole cell potency in T24 cells, H3K4Me2 (IC50)
Protocol: (iii) Detection of In-Cell H3K4 Dimethylation
T24 cells were seeded into a 96-well plate at 400 cells/well in 150 μl medium (McCoy 5A containing 10% FBS, 100 μg/ml Normocin, and 50 μg/ml Gentamycin, Invitrogen). A HP D300 digital dispenser was used to dose cells with DMSO or test compounds across a 10-point range of concentrations (high dose of 10 μM), and cultures were grown in a humidified 5% CO2 incubator at 37° C. After five days, plates were removed from incubator, media was aspirated, and the cells washed in PBS. Cell lysis, histone extraction, and detection of H3K4 dimethylation (H3K4me2) were performed using an AlphaLisa kit according to the manufacturer's instructions (Perkin Elmer). Signal was measured using an Envision plate reader.

MV4-11 cells = assay: Cell proliferation assay (ATPlite); assay type: cell-based; details: Homo sapiens, MV4-11, 120 h; MV-411 cells, five days; read-out: In vitro whole cell potency in MV-411 cells, (IC50)
Outline: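 Read-out is ATP-based luminescence (ATPlite) after 5 days of culture at 37° C under 5% CO2. Compounds were given as 10-point dilutions starting at 10 μM to MV4-11 cells, seeded at 1,000 cells/well in Alpha-MEM plus 10% FBS.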

WDR5 [3] = molecular target: T1, WDR5; assay: Surface Plasmon Resonance (SPR) assay, KD and residence time; assay type: binding; details: read-out: WDR5 binding affinity (KD)
[4] = surface plasmon resonance (SPR) assay
[5] = surface plasmon resonance (SPR)

Row | IC50 [2] [nM] | IC50 (MV4-11 cells) [nM] | Kd (WDR5 [3]; [4]) [nM] | Kd (WDR5 [3]; [5]) [nM] | Molecule | Ki (WDR5 [1]) [nM]
1 |  |  |  |  | Ac-A-R-A-NH2 | 120000
2 | 626 | 213 |  |  | C[C@@H]1CN(c2cc(F)c(-c3ccc(OCC4CC4)nc3)cc2NC(=O)c2c[nH]c(=O)cc2C(F)(F)F)C[C@H](C)N1C [Example 39, N-[5-[6-(cyclopropylmethoxy)pyridin-3-yl]-4-fluoro-2-[(3S,5R)-3,4,5-trimethylpiperazin-1-yl]phenyl]-6-oxo-4-(trifluoromethyl)-1H-pyridine-3-carboxamide] | 
3 | 882 | 749 |  |  | CN1CCN(c2cc(F)c(-c3cnc(N4CCOCC4)nc3)cc2NC(=O)c2c[nH]c(=O)cc2C(F)(F)F)CC1 [Example 3, N-(4-fluoro-2-(4-methylpiperazin-1-yl)-5-(2-morpholinopyrimidin-5-yl)phenyl)-6-oxo-4-(trifluoromethyl)-1,6-dihydropyridine-3-carboxamide] | 
4 | 1070 | 828 |  |  | C[C@@H]1CN(c2cc(F)c(-c3cnc(N4CCOCC4)nc3)cc2NC(=O)c2c[nH]c(=O)cc2C(F)(F)F)CCN1C [Example 6, (R)—N-(2-(3,4-dimethylpiperazin-1-yl)-4-fluoro-5-(2-morpholinopyrimidin-5-yl)phenyl)-6-oxo-4-(trifluoromethyl)-1,6-dihydropyridine-3-carboxamide] | 
5 | 166 | 51 |  |  | C[C@H]1CN(c2cc(F)c(-c3cnc(N4CCOCC4)nc3)cc2NC(=O)c2c[nH]c(=O)cc2C(F)(F)F)CCN1C [Example 7, (S)—N-(2-(3,4-dimethylpiperazin-1-yl)-4-fluoro-5-(2-morpholinopyrimidin-5-yl)phenyl)-6-oxo-4-(trifluoromethyl)-1,6-dihydropyridine-3-carboxamide] | 
6 |  | 20 | 0.434 |  | CC1CN(c2cc(F)c(-c3cnc(N4C[C@@H](C)O[C@@H](C)C4)nc3)cc2NC(=O)c2c[nH]c(=O)cc2C(F)(F)F)CCN1C (stereo in doubt) [Example 202, N-[4-fluoro-5-[2-[(2R,6S)-2,6-dimethylmorpholin-4-yl]pyrimidin-5-yl]-2-[(3R)-3,4-dimethylpiperazin-1-yl]phenyl]-6-oxo-4-(trifluoromethyl)-1H-pyridine-3-carboxamide] | 
7 |  | 36 |  | 558000 | CC1CN(c2cc(F)c(-c3csc(N4CCOCC4)n3)cc2NC(=O)c2c[nH]c(=O)cc2C(F)(F)F)CCN1C (stereo in doubt) [Example 617, N-[4-fluoro-5-(2-morpholin-4-yl-1,3-thiazol-4-yl)-2-[(3R)-3,4-dimethylpiperazin-1-yl]phenyl]-6-oxo-4-(trifluoromethyl)-1H-pyridine-3-carboxamide] | 
8 |  | 52 |  | 0.779 | CC(C)OC(=O)N1CC=C(c2cc(NC(=O)c3c[nH]c(=O)cc3C(F)(F)F)c(N3C[C@@H](C)N(C)[C@@H](C)C3)cc2F)C1 [Example 600, Propan-2-yl 3-[2-fluoro-5-[[6-oxo-4-(trifluoromethyl)-1H-pyridine-3-carbonyl]amino]-4-[(3R,5S)-3,4,5-trimethylpiperazin-1-yl]phenyl]-2,5-dihydropyrrole-1-carboxylate] | 
9 |  | 56 |  | 4.27 | C[C@@H]1CN(c2cc(F)c(C3=CCN(C(=O)OC4(C)CCC4)CC3)cc2NC(=O)c2c[nH]c(=O)cc2C(F)(F)F)C[C@H](C)N1C [Example 470, (1-methylcyclobutyl) 4-[2-fluoro-5-[[6-oxo-4-(trifluoromethyl)-1H-pyridine-3-carbonyl]amino]-4-[(3R,5S)-3,4,5-trimethylpiperazin-1-yl]phenyl]-3,6-dihydro-2H-pyridine-1-carboxylate] | 
10 | 144 |  |  |  | C[C@@H]1CN(c2cc(F)c(-c3cnc(N4CCOCC4)nc3)cc2NC(=O)c2c[nH]c(=O)cc2C(F)(F)F)C[C@H](C)N1C [Example 8, N-(4-fluoro-5-(2-morpholinopyrimidin-5-yl)-2-((3R,5S)-3,4,5-trimethylpiperazin-1-yl)phenyl)-6-oxo-4-(trifluoromethyl)-1,6-dihydropyridine-3-carboxamide] | 
11 |  | 62 |  | 0.493 | C[C@@H]1CN(c2ncc(-c3cc(NC(=O)c4ccc(F)cc4C(F)(F)F)c(N4CCN(C)[C@H](C)C4)cc3F)cn2)CCO1 (stereo in doubt) [Example 452, 4-fluoro-N-[4-fluoro-2-[(3R)-3,4-dimethylpiperazin-1-yl]-5-[2-[(2R)-2-methylmorpholin-4-yl]pyrimidin-5-yl]phenyl]-2-(trifluoromethyl)benzamide] | 
12 |  | 42 | 2.28 |  | CC(C)C1CN(c2ncc(-c3cc(NC(=O)c4c[nH]c(=O)cc4C(F)(F)F)c(N4C[C@@H](C)N(C)[C@@H](C)C4)cc3F)cn2)CCO1 (stereo in doubt) [Example 348, N-[4-fluoro-5-[2-[(2R)-2-propan-2-ylmorpholin-4-yl]pyrimidin-5-yl]-2-[(3S,5R)-3,4,5-trimethylpiperazin-1-yl]phenyl]-6-oxo-4-(trifluoromethyl)-1H-pyridine-3-carboxamide] | 
13 |  | 73 |  | 2.66 | C[C@@H]1CN(c2ccc(-c3cc(NC(=O)c4c[nH]c(=O)cc4C(F)F)c(N4C[C@@H](C)N(C)[C@@H](C)C4)cc3F)cn2)CCO1 [Example 508, 4-(difluoromethyl)-N-[4-fluoro-5-[6-[(2R)-2-methylmorpholin-4-yl]pyridin-3-yl]-2-[(3R,5S)-3,4,5-trimethylpiperazin-1-yl]phenyl]-6-oxo-1H-pyridine-3-carboxamide] | 
14 |  | 125 | 1.39 |  | C[C@@H]1CN(c2cc(F)c(C3=CCN(c4ncccn4)CC3)cc2NC(=O)c2c[nH]c(=O)cc2C(F)(F)F)C[C@H](C)N1C [Example 245, N-[4-fluoro-5-(1-pyrimidin-2-yl-3,6-dihydro-2H-pyridin-4-yl)-2-[(3R,5S)-3,4,5-trimethylpiperazin-1-yl]phenyl]-6-oxo-4-(trifluoromethyl)-1H-pyridine-3-carboxamide] | 
15 |  | 31 | 0.095 |  | C[C@@H]1CN(c2cc(F)c(C3=CCCN(c4ncccn4)C3)cc2NC(=O)c2c[nH]c(=O)cc2C(F)(F)F)C[C@H](C)N1C [Example 334, N-[4-fluoro-5-(1-pyrimidin-2-yl-3,6-dihydro-2H-pyridin-5-yl)-2-[(3R,5S)-3,4,5-trimethylpiperazin-1-yl]phenyl]-6-oxo-4-(trifluoromethyl)-1H-pyridine-3-carboxamide] | 
16 |  | 14 |  | 0.737 | C[C@@H]1CN(c2nccc(-c3cc(NC(=O)c4c[nH]c(=O)cc4C(F)(F)F)c(N4CCN(C)[C@H](C)C4)cc3F)n2)CCO1 (stereo in doubt) [Example 593, N-[4-fluoro-2-[(3R)-3,4-dimethylpiperazin-1-yl]-5-[2-[(2R)-2-methylmorpholin-4-yl]pyrimidin-4-yl]phenyl]-6-oxo-4-(trifluoromethyl)-1H-pyridine-3-carboxamide] | 
17 |  | 137 | 1.33 |  | C[C@@H]1CN(c2cc(F)c(-c3cnc(N4CCOCC4)nc3)cc2NC(=O)c2ccc(F)cc2C(F)(F)F)C[C@H](C)N1C [Example 248, 4-fluoro-N-[4-fluoro-5-(2-morpholin-4-ylpyrimidin-5-yl)-2-[(3R,5S)-3,4,5-trimethylpiperazin-1-yl]phenyl]-2-(trifluoromethyl)benzamide] | 
18 |  | 44 |  | 0.899 | C[C@@H]1CN(c2ncc(-c3cc(NC(=O)c4c[nH]c(=O)cc4C(F)F)c(N4CCN(C)[C@H](C)C4)cc3F)cn2)CCO1 (stereo in doubt) [Example 398, 4-(difluoromethyl)-N-[4-fluoro-2-[(3R)-3,4-dimethylpiperazin-1-yl]-5-[2-[(2R)-2-methylmorpholin-4-yl]pyrimidin-5-yl]phenyl]-6-oxo-1H-pyridine-3-carboxamide] | 
